Common to all, as to test: relative viability (nuclei count vs DMSO), 5 days (fraction); higher = more cells survive
Compound in test [1]: O=C(CCCCCCNC(=O)c1cnc(N(c2ccccc2)c2ccccc2)nc1)NO [Ricolinostat] + CC1(C)CCC(c2ccc(Cl)cc2)=C(CN2CCN(c3ccc(C(=O)NS(=O)(=O)c4ccc(N[C@H](CCN5CCOCC5)CSc5ccccc5)c(S(=O)(=O)C(F)(F)F)c4)cc3)CC2)C1 [Navitoclax] (partner 0.5 µM)
The method in brief: (§1)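 Relative viability divides the nuclei count in treated wells by that in vehicle wells. Lung cancer cell lines were seeded in 1536-well plates, dosed by pin tool the next day, and fixed and stained after 5 days in one step with final 0.05% Triton X-100, 1% formaldehyde and 1 ug/ml Hoechst. Dosing was a single drug or a fixed anchor-drug dose plus five library-drug doses (not always all listed) in √10 steps, and values are medians of duplicate plates imaged at 4×.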

Compound in test [2]: C1=CC=C(C(=C1)C2=CC=C(C=C2)C3=CSC4=C3C(=C(C(=O)N4)C#N)O)O + C[C@]1(O)C[C@@H](c2nc(-c3ccc4ccc(-c5ccccc5)nc4c3)c3c(N)nccn32)C1 [Linsitinib] (partner 1 µM)
The method in brief: as §1

Compound in the test “Ricolinostat + Alpelisib”: O=C(CCCCCCNC(=O)c1cnc(N(c2ccccc2)c2ccccc2)nc1)NO [Ricolinostat] + Cc1nc(NC(=O)N2CCC[C@H]2C(N)=O)sc1-c1ccnc(C(C)(C)C(F)(F)F)c1 [Alpelisib] (partner 2 µM)
The method in brief:
as §1

Compound in the test “Ricolinostat + Lapatinib”: O=C(CCCCCCNC(=O)c1cnc(N(c2ccccc2)c2ccccc2)nc1)NO [Ricolinostat] + CS(=O)(=O)CCNCc1ccc(-c2ccc3ncnc(Nc4ccc(OCc5cccc(F)c5)c(Cl)c4)c3c2)o1 [Lapatinib] (partner 2 µM)
The method in brief: as §1

Compound in test [3]: C1=CC=C(C(=C1)C2=CC=C(C=C2)C3=CSC4=C3C(=C(C(=O)N4)C#N)O)O + COc1cccc2cc(-c3nc([C@H]4CC[C@H](C(=O)O)CC4)n4ncnc(N)c34)[nH]c12 [OSI-027] (partner 0.5 µM)
The method in brief:
as §1

For the cell line NCI-H1792, the relative viability in test [1] (first compound 0.08 µM) is 0.438; in test [1] (first compound 0.253 µM), 0.632; in test [1] (first compound 0.8 µM), 0.518; in test [1] (first compound 2.53 µM), 0.654; in test [2] (first compound 0.253 µM) it was 0.436; in test [2] (first compound 0.8 µM) it was 0.542. Further, the relative viability was 0.474 in test [2] (first compound 2.53 µM); 0.317 in test [2] (first compound 8 µM); 0.55 with Ricolinostat + Alpelisib (first compound 0.08 µM); 0.661 with Ricolinostat + Alpelisib (first compound 0.253 µM); 0.67 in the test with Ricolinostat + Alpelisib (first compound 0.8 µM); 0.59 with Ricolinostat + Alpelisib (first compound 2.53 µM). For the same cell line, the relative viability with Ricolinostat + Lapatinib (first compound 0.08 µM) was 0.719; with Ricolinostat + Lapatinib (first compound 0.253 µM) it was 0.918; with Ricolinostat + Lapatinib (first compound 0.8 µM) it was 0.863; with Ricolinostat + Lapatinib (first compound 2.53 µM) it was 1.01; in test [3] (first compound 0.253 µM), 0.688; in test [3] (first compound 2.53 µM), 0.667. In addition, the relative viability in test [3] (first compound 8 µM) was determined as 0.477.

Values taken from the supplement of paper PMC10307832.
